Experimental data published in US4720495A, “Benzo[ij]quinolizine-2-carboxylic acids useful for treating bacterial infection” (priority 1985, dated 1988).
In brackets after ≈: the same amount, converted by molar mass.

How the values were obtained:
[1] = tested on: Bacillus subtilis ATCC 6633; experiment: minimal inhibitory concentration, in vitro antibacterial activity; type: cell-based; conditions: ATCC6633, 37° C., 20 hours
Method: (§1) The in vitro antibacterial activities of typical examples of the present compounds [I] were evaluated in terms of the minimal inhibitory concentration defined as the lowest concentration of the compound preventing the bacterial growth. The Gram-positive bacteria used as test microorganisms included Bacillus subtilis, Staphylococcus aureus and Streptococcus faecalis, and the Gram-negative bacteria used as test microorganisms included Escherichia coli, Enterobacter cloacae, Klebsiella pneumoniae, Proteus vulgaris, Pseudomonas aeruginosa, Serratia marcescens and Salmonella enteritidis. The minimal inhibitory concentration (cultured at 37° C. for 20 hours) was determined according to the standard method prescribed by the Japan Society of Chemotherapy (CHEMOTHERAPY, Vol. 29, No. 1, p. 76, 1981). The following compounds were used as typical examples of the present compounds [I]. At the end of the chemical name of each compound, its tentative designation is given in Parentheses.
(§2) For purposes of comparison, the in vitro antibacterial activities of ofloxacin, OPC-7241 and compound α were evaluated according to the same method as described above and the test results thus obtained are also shown in Table 1.

Enterobacter cloacae 963 = experiment: as above; type: cell-based; conditions: 37° C., 20 hours
Method: as §1, §2

Escherichia coli CI-304 = experiment: as above; type: cell-based; conditions: CI304, 37° C., 20 hours
Method: as §1, §2

[2] = tested on: Escherichia coli NIHJ JC-2; experiment: as above; type: cell-based; conditions: NIHJJC2, 37° C., 20 hours
Method: as §1, §2

[3] = tested on: Klebsiella pneumoniae PCI 602; experiment: as above; type: cell-based; conditions: PCI602, 37° C., 20 hours
Method: as §1, §2

[4] = tested on: Proteus vulgaris ATCC 13315; experiment: as above; type: cell-based; conditions: ATCC13315, 37° C., 20 hours
Method: as §1, §2

[5] = tested on: Pseudomonas aeruginosa NCTC 10490; experiment: as above; type: cell-based; conditions: NCTC10490, 37° C., 20 hours
Method: as §1, §2

[6] = tested on: Salmonella enteritidis G14; experiment: as above; type: cell-based; conditions: Salmonella enterica, 37° C., 20 hours
Method: as §1, §2

[7] = tested on: Serratia marcescens IAM 1184; experiment: as above; type: cell-based; conditions: IAM1184, 37° C., 20 hours
Method: as §1, §2

[8] = tested on: Staphylococcus aureus FDA 209P JC-1; experiment: as above; type: cell-based; conditions: FDA209P, 37° C., 20 hours
Method: as §1, §2

[9] = tested on: Streptococcus faecalis AHU 1085; experiment: as above; type: cell-based; conditions: Enterococcus faecalis, AHU1085, 37° C., 20 hours
Method: as §1, §2

[10] = enteral absorbability, serum concentration after oral administration to mice; type: in vivo; conditions: mouse, 50 mg/kg orally, fasted male ICR mice
Method: Using male ICR mice fasted overnight (weighing 20±1 g), the enteral absorbability of some typical examples of the present compounds [I] was tested. This test was carried out by administering 50 mg/kg of each test compound orally to mice and determining its serum concentration 30 minutes, 1 hour, 2 hours and 4 hours after administration. Five mice were used for each test point. At each test point, whole blood was collected from the mice by cardiac puncture and used to prepare serum samples. Concentrations of the test compounds in serum samples were determined by the paper disc method using Escherichia coli CI-304 as the test microorganism.
For purposes of comparison, the enteral absorbability of ofloxacin and OPC-7241 was tested in the same manner as described above and the results thus obtained are also shown in Table 2.

Row | MIC [1] [µg/mL] | MIC (Enterobacter cloacae 963) [µg/mL] | MIC (Escherichia coli CI-304) [µg/mL] | MIC [2] [µg/mL] | MIC [3] [µg/mL] | MIC [4] [µg/mL] | MIC [5] [µg/mL] | MIC [6] [µg/mL] | MIC [7] [µg/mL] | MIC [8] [µg/mL] | MIC [9] [µg/mL] | concentration at 0.5 h ([10]; 30 min.) [ng/mL] | concentration at 1 h ([10]; 1 hr.) [ng/mL] | concentration at 2 h ([10]; 2 hr.) [ng/mL] | concentration at 4 h ([10]; 4 hr.) [ng/mL] | Structure (SMILES)
1 | 0.1 (≈ 0.28 µM) | 0.78 (≈ 2.18 µM) | 0.2 (≈ 0.56 µM) | 0.39 (≈ 1.09 µM) | 0.1 (≈ 0.28 µM) | 0.1 (≈ 0.28 µM) | 0.78 (≈ 2.18 µM) | 0.78 (≈ 2.18 µM) | 1.56 (≈ 4.37 µM) | 0.39 (≈ 1.09 µM) | 1.56 (≈ 4.37 µM) | – | – | – | – | CC1C=Cc2c(N3CCN(C)CC3)c(F)cc3c(=O)c(C(=O)O)cn1c23 (centres unmarked) [Compound 19, 9-Fluoro-5-methyl-8-(4-methyl-1-piperazinyl) -1-oxo-1H, 5H-benzo[ij]quinolizine-2-carboxylic acid]
2 | 0.2 (≈ 0.538 µM) | 0.2 (≈ 0.538 µM) | 0.2 (≈ 0.538 µM) | 0.39 (≈ 1.05 µM) | 0.1 (≈ 0.269 µM) | 0.1 (≈ 0.269 µM) | 1.56 (≈ 4.2 µM) | 1.56 (≈ 4.2 µM) | 1.56 (≈ 4.2 µM) | 0.2 (≈ 0.538 µM) | – | 15500 | 14900 | 9300 | 5400 | CC1CN(c2c(F)cc3c(=O)c(C(=O)O)cn4c3c2C=CC4C)CCN1C (centres unmarked) [Compound 25, 9-Fluoro-5-methyl-8-(3,4-dimethyl-1-piperazinyl) -1-oxo-1H, 5H-benzo[ij]quinolizine-2-carboxylic acid]
3 | – | 0.39 (≈ 1.05 µM) | 0.2 (≈ 0.538 µM) | 0.39 (≈ 1.05 µM) | 0.2 (≈ 0.538 µM) | 0.1 (≈ 0.269 µM) | 1.56 (≈ 4.2 µM) | 1.56 (≈ 4.2 µM) | – | – | – | – | – | – | – | CC1C=Cc2c(N3CCNC(C)(C)C3)c(F)cc3c(=O)c(C(=O)O)cn1c23 (centres unmarked) [Compound 26, 9-Fluoro-5-methyl-8-(3,3-dimethyl-1-piperazinyl) -1-oxo-1H, 5H-benzo[ij]quinolizine-2-carboxylic acid]
4 | – | 0.78 (≈ 2.1 µM) | 0.2 (≈ 0.538 µM) | 0.39 (≈ 1.05 µM) | 0.2 (≈ 0.538 µM) | – | – | – | – | – | – | – | – | – | – | CCC1C=Cc2c(N3CCNC(C)C3)c(F)cc3c(=O)c(C(=O)O)cn1c23 (centres unmarked) [Compound 32, 9-Fluoro-5-ethyl-8-(3-methyl-1-piperazinyl) -1-oxo-1H, 5H-benzo[ij]quinolizine-2-carboxylic acid]

Second part, the compound before the results:

Row | Structure (SMILES) | MIC [1] [µg/mL] | MIC (Enterobacter cloacae 963) [µg/mL] | MIC (Escherichia coli CI-304) [µg/mL] | MIC [2] [µg/mL] | MIC [3] [µg/mL] | MIC [4] [µg/mL] | MIC [5] [µg/mL] | MIC [6] [µg/mL] | MIC [7] [µg/mL] | MIC [8] [µg/mL] | MIC [9] [µg/mL] | concentration at 0.5 h ([10]; 30 min.) [ng/mL] | concentration at 1 h ([10]; 1 hr.) [ng/mL] | concentration at 2 h ([10]; 2 hr.) [ng/mL] | concentration at 4 h ([10]; 4 hr.) [ng/mL]
5 | CC1C=Cc2c(N3CCNCC3)c(F)cc3c(=O)c(C(=O)O)cn1c23 (centres unmarked) [Compound 20, 9-Fluoro-5-methyl-8-(1-piperazinyl) -1-oxo-1H, 5H-benzo[ij]quinolizine-2-carboxylic acid] | – | 0.78 (≈ 2.27 µM) | 0.2 (≈ 0.582 µM) | 0.39 (≈ 1.14 µM) | 0.2 (≈ 0.582 µM) | 0.2 (≈ 0.582 µM) | 3.13 (≈ 9.12 µM) | 0.78 (≈ 2.27 µM) | 3.13 (≈ 9.12 µM) | 0.78 (≈ 2.27 µM) | – | – | – | – | –
6 | CC1C=Cc2c(N3CCNCC3)c(Cl)cc3c(=O)c(C(=O)O)cn1c23 (centres unmarked) [Compound 22, 9-Chloro-5-methyl-8-(1-piperazinyl) -1-oxo-1H, 5H-benzo[ij]quinolizine-2-carboxylic acid] | 0.1 (≈ 0.278 µM) | 0.2 (≈ 0.556 µM) | 0.1 (≈ 0.278 µM) | 0.2 (≈ 0.556 µM) | 0.1 (≈ 0.278 µM) | 0.1 (≈ 0.278 µM) | 0.78 (≈ 2.17 µM) | 0.78 (≈ 2.17 µM) | 0.78 (≈ 2.17 µM) | 0.2 (≈ 0.556 µM) | 0.78 (≈ 2.17 µM) | – | – | – | –
7 | CC1C=Cc2c(N3CCN(C)CC3)c(Cl)cc3c(=O)c(C(=O)O)cn1c23 (centres unmarked) [Compound 24, 9-Chloro-5-methyl-8-(4-methyl-1-piperazinyl)-1-oxo-1H,5H-benzo[ij]quinolizine-2-carboxylic acid] | 0.2 (≈ 0.535 µM) | 0.2 (≈ 0.535 µM) | 0.2 (≈ 0.535 µM) | 0.39 (≈ 1.04 µM) | 0.1 (≈ 0.267 µM) | 0.1 (≈ 0.267 µM) | 1.56 (≈ 4.17 µM) | 1.56 (≈ 4.17 µM) | 1.56 (≈ 4.17 µM) | 0.2 (≈ 0.535 µM) | 0.78 (≈ 2.09 µM) | – | – | – | –
8 | CC1CN(c2c(F)cc3c(=O)c(C(=O)O)cn4c3c2C=CC4C)CC(C)N1C (centres unmarked) [Compound 27, 9-Fluoro-5-methyl-8-(3,4,5-trimethyl-1-piperazinyl) -1-oxo-1H, 5H-benzo[ij]quinolizine-2-carboxylic acid] | – | 0.39 (≈ 1.01 µM) | 0.2 (≈ 0.519 µM) | – | 0.2 (≈ 0.519 µM) | 0.1 (≈ 0.259 µM) | – | 0.78 (≈ 2.02 µM) | 1.56 (≈ 4.05 µM) | 0.78 (≈ 2.02 µM) | – | – | – | – | –
